{"source": "patent US20230075521A1", "about": "“RESVERATROL PHARMACEUTICAL COMPOSITIONS AND METHODS OF USE THEREOF” (priority 2021, published 2023)", "test_system": "serum cytokines and chemokines", "test": "Serum cytokine and chemokine levels (48-Plex ProcartaPlex, Luminex)", "type": "in vivo, 3×Tg-AD mouse", "conditions": "50 mg/kg oral, 9 months", "experimental": "At study endpoints (age 15 months for sub-chronic study, age 13 months for long-term study), mice were anaesthetized with isoflurane and blood was collected by transcardial puncture. Blood was stored on ice and then centrifuged at 10,000×g at 4° C. for 10 min to collect serum and stored at −80° C. until use. The brain was then extracted and quickly dissected on ice to collect prefrontal cortex (PFC), hippocampus, entorhinal cortex (ERC), and cerebellum, which were immediately frozen in liquid nitrogen. The samples were stored at −80° C. until processed for RNA or protein extraction. For each mouse, brain regions from one hemisphere were used for RNA preparation and qPCR and sections from the other hemisphere were used for protein work including ELISAs.\nHuman Aβ1-42, Aβ1-40, phosphorylated tau Ser 396, phosphorylated tau Thr181, and total tau were measured in brain tissue by enzyme linked immuno-sorbent assay (ELISA; Invitrogen by Thermo) and normalized to total protein. All the kits were used as per the manufacturer's instructions and measured using the EnVision® multimode plate reader (Perkin Elmer). Serum and brain tissue protein extracts were analyzed for cytokine and chemokine levels using the Immune Monitoring 48-Plex Mouse ProcartaPlex™ Panel (Invitrogen by Thermo) according to manufacturer's standard protocol and read using Luminex xMAP (multi-analyte profiling) technology.", "note": "Several values for one entry are separate records, joined by “and”; a condition that tells them apart may be missing. Equal values may be shown once.", "data": [{"smiles": "Oc1ccc(/C=C/c2cc(O)cc(O)c2)cc1", "note": "[RSV, (trans-)resveratrol]", "values": [{"measurement": "BAFF serum level, change vs vehicle", "setting": "female 3×Tg-AD mice", "value": 22.01, "unit": "pg/mL"}, {"measurement": "G-CSF serum level, change vs vehicle", "setting": "female 3×Tg-AD mice", "value": -0.68, "unit": "pg/mL"}, {"measurement": "IFNg serum level, change vs vehicle", "setting": "female 3×Tg-AD mice", "value": 1.06, "unit": "pg/mL"}, {"measurement": "IL-1b serum level, change vs vehicle", "setting": "female 3×Tg-AD mice", "value": 0.80, "unit": "pg/mL"}, {"measurement": "IL-2RA serum level, change vs vehicle", "setting": "female 3×Tg-AD mice", "value": -71.13, "unit": "pg/mL"}, {"measurement": "IL-3 serum level, change vs vehicle", "setting": "female 3×Tg-AD mice", "value": 0.15, "unit": "pg/mL"}, {"measurement": "IL-5 serum level, change vs vehicle", "setting": "female 3×Tg-AD mice", "value": 0.05, "unit": "pg/mL"}, {"measurement": "IL-6 serum level, change vs vehicle", "setting": "female 3×Tg-AD mice", "value": -10.05, "unit": "pg/mL"}, {"measurement": "IL-9 serum level, change vs vehicle", "setting": "female 3×Tg-AD mice", "value": 13.83, "unit": "pg/mL"}, {"measurement": "IL-10 serum level, change vs vehicle", "setting": "female 3×Tg-AD mice", "value": -8.54, "unit": "pg/mL"}, {"measurement": "IL-12p70 serum level, change vs vehicle", "setting": "female 3×Tg-AD mice", "value": 0.15, "unit": "pg/mL"}, {"measurement": "IL-13 serum level, change vs vehicle", "setting": "female 3×Tg-AD mice", "value": 15.44, "unit": "pg/mL"}, {"measurement": "IL-15/IL-15R serum level, change vs vehicle", "setting": "female 3×Tg-AD mice", "value": 0.51, "unit": "pg/mL"}, {"measurement": "IL-17A serum level, change vs vehicle", "setting": "female 3×Tg-AD mice", "value": -5.14, "unit": "pg/mL"}, {"measurement": "IL-18 serum level, change vs vehicle", "setting": "female 3×Tg-AD mice", "value": -74.10, "unit": "pg/mL"}, {"measurement": "IL-19 serum level, change vs vehicle", "setting": "female 3×Tg-AD mice", "value": -17.31, "unit": "pg/mL"}, {"measurement": "IL-22 serum level, change vs vehicle", "setting": "female 3×Tg-AD mice", "value": -2.84, "unit": "pg/mL"}, {"measurement": "IL-23 serum level, change vs vehicle", "setting": "female 3×Tg-AD mice", "value": 16.41, "unit": "pg/mL"}, {"measurement": "IL-25/IL-17 serum level, change vs vehicle", "setting": "female 3×Tg-AD mice", "value": -12.62, "unit": "pg/mL"}, {"measurement": "IL-27 serum level, change vs vehicle", "setting": "female 3×Tg-AD mice", "value": 0.92, "unit": "pg/mL"}, {"measurement": "IL-28 serum level, change vs vehicle", "setting": "female 3×Tg-AD mice", "value": 5.70, "unit": "pg/mL"}, {"measurement": "IL-33 serum level, change vs vehicle", "setting": "female 3×Tg-AD mice", "value": -4.36, "unit": "pg/mL"}, {"measurement": "IP-10 serum level, change vs vehicle", "setting": "female 3×Tg-AD mice", "value": -9.75, "unit": "pg/mL"}, {"measurement": "KC serum level, change vs vehicle", "setting": "female 3×Tg-AD mice", "value": -41.09, "unit": "pg/mL"}, {"measurement": "LIF serum level, change vs vehicle", "setting": "female 3×Tg-AD mice", "value": -1.86, "unit": "pg/mL"}, {"measurement": "LIX serum level, change vs vehicle", "setting": "female 3×Tg-AD mice", "value": 1701.00, "unit": "pg/mL"}, {"measurement": "MCP-1 serum level, change vs vehicle", "setting": "female 3×Tg-AD mice", "value": -43.64, "unit": "pg/mL"}, {"measurement": "MCP-3 serum level, change vs vehicle", "setting": "female 3×Tg-AD mice", "value": -212.20, "unit": "pg/mL"}, {"measurement": "MIP-1a serum level, change vs vehicle", "setting": "female 3×Tg-AD mice", "value": 3.71, "unit": "pg/mL"}, {"measurement": "MIP-1b serum level, change vs vehicle", "setting": "female 3×Tg-AD mice", "value": 0.17, "unit": "pg/mL"}, {"measurement": "MIP-2 serum level, change vs vehicle", "setting": "female 3×Tg-AD mice", "value": -7.86, "unit": "pg/mL"}, {"measurement": "RANTES serum level, change vs vehicle", "setting": "female 3×Tg-AD mice", "value": -9.09, "unit": "pg/mL"}, {"measurement": "TNFa serum level, change vs vehicle", "setting": "female 3×Tg-AD mice", "value": -2.67, "unit": "pg/mL"}, {"measurement": "sRANKL serum level, change vs vehicle", "setting": "female 3×Tg-AD mice", "value": -0.58, "unit": "pg/mL"}, {"measurement": "Eotaxin serum level, change vs vehicle", "setting": "female 3×Tg-AD mice, 50 mg/kg", "value": "-3162 ± 1165 pg/mL and -3162.00 pg/mL"}, {"measurement": "Leptin serum level, change vs vehicle", "setting": "female 3×Tg-AD mice, 50 mg/kg", "value": "-33707 ± 9226 pg/mL and -33707.0 pg/mL"}, {"measurement": "BAFF serum level, change vs vehicle", "setting": "male 3×Tg-AD mice", "value": -44.06, "unit": "pg/mL"}, {"measurement": "Eotaxin serum level, change vs vehicle", "setting": "male 3×Tg-AD mice", "value": 943.10, "unit": "pg/mL"}, {"measurement": "G-CSF serum level, change vs vehicle", "setting": "male 3×Tg-AD mice", "value": -5.14, "unit": "pg/mL"}, {"measurement": "IFNg serum level, change vs vehicle", "setting": "male 3×Tg-AD mice", "value": -0.66, "unit": "pg/mL"}, {"measurement": "IL-1b serum level, change vs vehicle", "setting": "male 3×Tg-AD mice", "value": -5.86, "unit": "pg/mL"}, {"measurement": "IL-2RA serum level, change vs vehicle", "setting": "male 3×Tg-AD mice", "value": -21.16, "unit": "pg/mL"}, {"measurement": "IL-5 serum level, change vs vehicle", "setting": "male 3×Tg-AD mice", "value": 8.72, "unit": "pg/mL"}, {"measurement": "IL-6 serum level, change vs vehicle", "setting": "male 3×Tg-AD mice", "value": -60.32, "unit": "pg/mL"}, {"measurement": "IL-9 serum level, change vs vehicle", "setting": "male 3×Tg-AD mice", "value": -9.66, "unit": "pg/mL"}, {"measurement": "IL-10 serum level, change vs vehicle", "setting": "male 3×Tg-AD mice", "value": 2.25, "unit": "pg/mL"}, {"measurement": "IL-12p70 serum level, change vs vehicle", "setting": "male 3×Tg-AD mice", "value": -13.72, "unit": "pg/mL"}, {"measurement": "IL-13 serum level, change vs vehicle", "setting": "male 3×Tg-AD mice", "value": -72.28, "unit": "pg/mL"}, {"measurement": "IL-15/IL-15R serum level, change vs vehicle", "setting": "male 3×Tg-AD mice", "value": -11.93, "unit": "pg/mL"}, {"measurement": "IL-17A serum level, change vs vehicle", "setting": "male 3×Tg-AD mice", "value": -6.64, "unit": "pg/mL"}, {"measurement": "IL-18 serum level, change vs vehicle", "setting": "male 3×Tg-AD mice", "value": -415.10, "unit": "pg/mL"}, {"measurement": "IL-19 serum level, change vs vehicle", "setting": "male 3×Tg-AD mice", "value": -23.06, "unit": "pg/mL"}, {"measurement": "IL-23 serum level, change vs vehicle", "setting": "male 3×Tg-AD mice", "value": -12.74, "unit": "pg/mL"}, {"measurement": "IL-25/IL-17 serum level, change vs vehicle", "setting": "male 3×Tg-AD mice", "value": -235.80, "unit": "pg/mL"}, {"measurement": "IL-28 serum level, change vs vehicle", "setting": "male 3×Tg-AD mice", "value": -44.41, "unit": "pg/mL"}, {"measurement": "IL-33 serum level, change vs vehicle", "setting": "male 3×Tg-AD mice", "value": 107.60, "unit": "pg/mL"}, {"measurement": "IP-10 serum level, change vs vehicle", "setting": "male 3×Tg-AD mice", "value": -47.95, "unit": "pg/mL"}, {"measurement": "KC serum level, change vs vehicle", "setting": "male 3×Tg-AD mice", "value": -90.17, "unit": "pg/mL"}, {"measurement": "LIF serum level, change vs vehicle", "setting": "male 3×Tg-AD mice", "value": -8.06, "unit": "pg/mL"}, {"measurement": "LIX serum level, change vs vehicle", "setting": "male 3×Tg-AD mice", "value": -6715.00, "unit": "pg/mL"}, {"measurement": "Leptin serum level, change vs vehicle", "setting": "male 3×Tg-AD mice", "value": -1768.00, "unit": "pg/mL"}, {"measurement": "MIP-1a serum level, change vs vehicle", "setting": "male 3×Tg-AD mice", "value": 4.01, "unit": "pg/mL"}, {"measurement": "MIP-1b serum level, change vs vehicle", "setting": "male 3×Tg-AD mice", "value": -6.40, "unit": "pg/mL"}, {"measurement": "RANTES serum level, change vs vehicle", "setting": "male 3×Tg-AD mice", "value": -24.75, "unit": "pg/mL"}, {"measurement": "TNFa serum level, change vs vehicle", "setting": "male 3×Tg-AD mice", "value": -0.08, "unit": "pg/mL"}, {"measurement": "VEGF-A serum level, change vs vehicle", "setting": "male 3×Tg-AD mice", "value": -17.68, "unit": "pg/mL"}, {"measurement": "sRANKL serum level, change vs vehicle", "setting": "male 3×Tg-AD mice", "value": 4.06, "unit": "pg/mL"}, {"measurement": "IL-3 serum level, change vs vehicle", "setting": "male 3×Tg-AD mice, 50 mg/kg", "value": "-1.53 ± 0.26 pg/mL and -1.53 pg/mL"}, {"measurement": "IL-22 serum level, change vs vehicle", "setting": "male 3×Tg-AD mice, 50 mg/kg", "value": "-23.37 ± 5.2 pg/mL and -23.37 pg/mL"}, {"measurement": "MIP-2 serum level, change vs vehicle", "setting": "male 3×Tg-AD mice, 50 mg/kg", "value": "-16.16 ± 5.95 pg/mL and -16.16 pg/mL"}]}]}
